# Experimental data taken from patent US20240173419A1, “CDK2 DEGRADERS AND USES THEREOF” (Kymera Therapeutics, Inc., priority 2022, published 2024).
# Target: T1, CDK2 (Homo sapiens, UniProt P24941)
# T1 construct: endogenous in cells; host or cells: MKN1 cells
# Assay: CDK2 degradation in MKN1 cells (AlphaLISA)
# Assay type: cell-based
# Conditions: 14 h incubation; for DC50: read-out: CDK2 degradation 14 h: Mean external-Abs DC50
# Procedure, shortened: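 DC50 from four-parameter logistic fit of AlphaLISA CDK2 signal, corrected for no-cell wells. Lysates came from MKN1 cells, 2e4 per well, exposed 14 h at 37° C to compound at 0.001 nM-10 μM (1:5 series, 11 doses) in 0.1% DMSO.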
SMILES,CDK2 degradation 14 h: Average Dmax %,DC50 [nM]
Cc1cc(S(=O)(=O)NC2CCC(CN3CCN(c4c(F)cc(C5CCC(=O)NC5=O)cc4F)CC3)CC2)ccc1Nc1ncc(C(F)(F)F)c(N2CCCC(C)(O)C2)n1 (stereo not drawn) [I-935],A (A (>75% o)),< 100
Cc1cc(S(=O)(=O)NC2CCC(CN3CCN(c4cccc(C5CCC(=O)NC5=O)c4)CC3)CC2)ccc1Nc1ncc2c(n1)N(C1CCCC(O)C1)C(=O)C21CC1 (stereo not drawn) [I-938],C (C (>25% -50%)),> 1000
Cc1cc(S(=O)(=O)NC2CCC(CCN3CCN(c4ccc(C5CCC(=O)NC5=O)cc4F)CC3)CC2)ccc1Nc1ncc2c(n1)N(C1CCCC(O)C1)C(=O)C21CC1 (stereo not drawn) [I-939],B (B (>50% -75%)),< 100
Cc1cc(S(=O)(=O)NC2CCC(CN3CCN(c4cc(C)c(C5CCC(=O)NC5=O)cc4F)CC3)CC2)ccc1Nc1ncc(C(F)(F)F)c(N2CCCC(C)(O)C2)n1 (stereo not drawn) [I-940],A (A (>75% o)),< 100
Cc1cc(S(=O)(=O)NC2CCC(CN3CCN(c4c(F)cc(C5CCC(=O)NC5=O)cc4Cl)CC3)CC2)ccc1Nc1ncc(C(F)(F)F)c(N2CCCC(C)(O)C2)n1 (stereo not drawn) [I-941],A (A (>75% o)),< 100
Cc1cc(S(=O)(=O)NC2CCC(OC3CCN(c4ccc(C5CCC(=O)NC5=O)cc4F)CC3)CC2)ccc1Nc1ncc(C(F)(F)F)c(N2CCCC(C)(O)C2)n1 (stereo not drawn) [I-942],A (A (>75% o)),< 100
CC1(O)CCCN(c2nc(Nc3ccc(S(=O)(=O)NC4CCC(CN5CCN(c6ccc(C7CCC(=O)NC7=O)c(F)c6)CC5)CC4)cc3)ncc2C(F)(F)F)C1 (stereo not drawn) [I-943],A (A (>75% o)),< 100
CC1(O)CCCN(c2nc(Nc3ccc(S(=O)(=O)NC4CCC(CN5CCN(c6ccc(C7CCC(=O)NC7=O)c(F)c6)CC5)CC4)cc3C(F)F)ncc2C(F)(F)F)C1 (stereo not drawn) [I-944],A (A (>75% o)),< 100
Cc1cc(S(=O)(=O)NC2CCC(CN3CCN(c4ccc5c(c4)n(C4CC4)c(=O)n5C4CCC(=O)NC4=O)CC3)CC2)ccc1Nc1ncc2c(n1)N(C1CCCC(O)C1)C(=O)C21CC1 (stereo not drawn) [I-947],A (A (>75% o)),< 100
Cc1cc(S(=O)(=O)NC2CCN(CC3CCN(c4c(F)ccc5c4n(C)c(=O)n5C4CCC(=O)NC4=O)CC3)CC2F)ccc1Nc1ncc2c(n1)N(C1CCCC(O)C1)C(=O)C21CC1 (stereo not drawn) [I-949],A (A (>75% o)),< 100
O=C1CCC(c2ccc(N3CCC(CN4CCC(NS(=O)(=O)c5ccc(Nc6ncc7c(n6)N(C6CCCC(O)C6)C(=O)C76CC6)c(F)c5)C(F)C4)CC3)cc2F)C(=O)N1 (stereo not drawn) [I-950],A (A (>75% o)),< 100
Cc1cc(S(=O)(=O)NC2CCC(CN3CCN(c4ccc(C5CCC(=O)NC5=O)cc4F)CC3C)CC2)ccc1Nc1ncc2c(n1)N(C1CCCC(O)C1)C(=O)C21CC1 (stereo not drawn) [I-966],A (A (>75% o)),< 100
Cn1nc(N2CCC(=O)NC2=O)c2ccc(C3CCN(Cc4cccc(S(=O)(=O)N5CCC(Nc6ncc7ccc(=O)n(C8CCCC8)c7n6)CC5)c4)CC3)cc21 [I-968],A (A (>75% o)),< 100
Cc1cc(S(=O)(=O)N2CCC(CN(C)C3CCN(c4cccc5c4n(C)c(=O)n5C4CCC(=O)NC4=O)CC3)CC2)ccc1Nc1nc(OC2CCCCC2)c2nc[nH]c2n1 (stereo not drawn) [I-970],A (A (>75% o)),< 100
Cc1cc(S(=O)(=O)NCCOCCOCCCc2ccc3c(c2)n(C)c(=O)n3C2CCC(=O)NC2=O)ccc1Nc1ncc2c(n1)N(C1CCCC1)C(=O)C21CC1 (stereo not drawn) [I-972],B (B (>50% -75%)),< 100
Cc1cc(S(=O)(=O)NCCOCCOCCOCCOCCCc2ccc3c(c2)n(C)c(=O)n3C2CCC(=O)NC2=O)ccc1Nc1ncc2ccc(=O)n(C3CCCC3)c2n1 (stereo not drawn) [I-973],A (A (>75% o)),< 100
Cc1cc(S(=O)(=O)NCCOCCOCCOCCOCCCc2ccc3c(c2)n(C)c(=O)n3C2CCC(=O)NC2=O)ccc1Nc1ncc2c(n1)N(C1CCCC1)C(=O)C21CC1 (stereo not drawn) [I-974],A (A (>75% o)),< 100
Cc1cc(S(=O)(=O)NCCCCCCc2cccc3c2n(C)c(=O)n3C2CCC(=O)NC2=O)ccc1Nc1ncc2cc(C(F)F)c(=O)n(C3CCCC3(C)O)c2n1 (stereo not drawn) [I-976],B (B (>50% -75%)),< 100
CC1CC(NS(=O)(=O)c2ccc(Nc3ncc(C(F)(F)F)c(N4CCCC(C)(O)C4)n3)c(F)c2)CCN1CC1CCN(c2ccc(C3CCC(=O)NC3=O)c(F)c2)CC1 (stereo not drawn) [I-1037],A (A (>75% o)),< 100
Cn1c(=O)n(C2CCC(=O)NC2=O)c2ccc(N3CCC(CN4CCC(NS(=O)(=O)c5ccc(Nc6ncc(C(F)(F)F)c(N7CCCC(C)(O)C7)n6)c(F)c5)C(F)C4)CC3)cc21 (stereo not drawn) [I-1039],A (A (>75% o)),< 100

SMILES,CDK2 degradation 14 h: Average Dmax %,DC50 [nM]
CC1(O)CCCN(c2nc(Nc3ccc(S(=O)(=O)N4CCN(CC5CCC(Oc6cccc(C7CCC(=O)NC7=O)c6)CC5)CC4)cc3C(F)F)ncc2C(F)(F)F)C1 (stereo not drawn) [I-1043],D (D (<25%)),> 1000
CC1(O)CCCN(c2nc(Nc3ccc(S(=O)(=O)N4CCN(CC5CCC(Oc6ccc(C7CCC(=O)NC7=O)cc6)CC5)CC4)cc3C(F)F)ncc2C(F)(F)F)C1 (stereo not drawn) [I-1044],D (D (<25%)),> 1000
CN(CC1CCC(NS(=O)(=O)c2ccc(Nc3ncc(C(F)(F)F)c(N4CCCC(C)(O)C4)n3)c(C(F)F)c2)CC1)C1CN(c2ccc(C3CCC(=O)NC3=O)c(F)c2)C1 (stereo not drawn) [I-1045],B (B (>50% -75%)),100 to 500
CC1CN(CC2CCN(c3ccc(C4CCC(=O)NC4=O)c(F)c3)CC2)CCC1NS(=O)(=O)c1ccc(Nc2ncc(C(F)(F)F)c(N3CCCC(C)(O)C3)n2)c(F)c1 (stereo not drawn) [I-1046],A (A (>75% o)),< 100
Cc1cc(S(=O)(=O)NC2CCC(CN3CCN(c4ccc(C5CCC(=O)NC5=O)c(Cl)c4)CC3)CC2)ncc1Nc1ncc(C(F)(F)F)c(N2CCCC(C)(O)C2)n1 (stereo not drawn) [I-1047],A (A (>75% o)),< 100
Cc1nc(S(=O)(=O)NC2CCC(CN3CCN(c4ccc(C5CCC(=O)NC5=O)c(Cl)c4)CC3)CC2)ccc1Nc1ncc(C(F)(F)F)c(N2CCCC(C)(O)C2)n1 (stereo not drawn) [I-1048],A (A (>75% o)),< 100
Cc1nc(S(=O)(=O)NC2CCC(CN3CCN(c4ccc(C5CCC(=O)NC5=O)c(F)c4)CC3)CC2)ccc1Nc1ncc(C(F)(F)F)c(N2CCCC(C)(O)C2)n1 (stereo not drawn) [I-1049],A (A (>75% o)),< 100
CC1(O)CCN(c2nc(Nc3ccc(S(=O)(=O)NC4CCN(CC5CCN(c6ccc(C7CCC(=O)NC7=O)cc6F)CC5)CC4F)cc3F)ncc2C(F)(F)F)CC1 (stereo not drawn) [I-1050],A (A (>75% o)),< 100
CC1(O)CCN(c2nc(Nc3ccc(S(=O)(=O)NC4CCN(CC5CCN(c6ccc(C7CCC(=O)NC7=O)c(F)c6)CC5)CC4F)cc3F)ncc2C(F)(F)F)CC1 (stereo not drawn) [I-1051],A (A (>75% o)),< 100
Cc1cc(S(=O)(=O)NC2CCN(CC3CCN(c4ccc(C5CCC(=O)NC5=O)cc4F)CC3)CC2F)ccc1Nc1ncc(C(F)(F)F)c(N2CCCC(C)(O)C2)n1 (stereo not drawn) [I-1054],A (A (>75% o)),< 100
Cc1cc(S(=O)(=O)NC2CCN(CC3CCN(c4ccc(C5CCC(=O)NC5=O)cc4F)CC3)CC2F)ccc1Nc1ncc(C(F)(F)F)c(N2CCCC(C)(O)C2)n1 (stereo not drawn) [I-1055],A (A (>75% o)),< 100
CC1(O)CCCN(c2nc(Nc3ccc(S(=O)(=O)NC4CCN(CC5CCN(c6ccc(C7CCC(=O)NC7=O)c(F)c6)CC5)CC45CC5)cc3F)ncc2C(F)(F)F)C1 (stereo not drawn) [I-1056],A (A (>75% o)),< 100
CC1(O)CCCN(c2nc(Nc3ccc(S(=O)(=O)NC4CC5CCC(C4)N5CC4CCN(c5ccc(C6CCC(=O)NC6=O)c(F)c5)CC4)cc3F)ncc2C(F)(F)F)C1 (stereo not drawn) [I-1057],B (B (>50% -75%)),100 to 500
CC1CC(NS(=O)(=O)c2ccc(Nc3ncc(C(F)(F)F)c(N4CCCC(C)(O)C4)n3)c(F)c2)CCN1CC1CCN(c2ccc(C3CCC(=O)NC3=O)c(F)c2)CC1 (stereo not drawn) [I-1059],A (A (>75% o)),< 100
CC1CC(NS(=O)(=O)c2ccc(Nc3ncc(C(F)(F)F)c(N4CCCC(C)(O)C4)n3)c(F)c2)CCN1CC1CCN(c2ccc(C3CCC(=O)NC3=O)c(F)c2)CC1 (stereo not drawn) [I-1060],A (A (>75% o)),< 100
CC1CN(CC2CCN(c3ccc(C4CCC(=O)NC4=O)c(F)c3)CC2)CCC1NS(=O)(=O)c1ccc(Nc2ncc(C(F)(F)F)c(N3CCCC(C)(O)C3)n2)c(F)c1 (stereo not drawn) [I-1061],A (A (>75% o)),< 100
CC1CN(CC2CCN(c3ccc(C4CCC(=O)NC4=O)c(F)c3)CC2)CCC1NS(=O)(=O)c1ccc(Nc2ncc(C(F)(F)F)c(N3CCCC(C)(O)C3)n2)c(F)c1 (stereo not drawn) [I-1062],A (A (>75% o)),< 100
CC1CN(CC2CCN(c3ccc(C4CCC(=O)NC4=O)c(F)c3)CC2)CCC1NS(=O)(=O)c1ccc(Nc2ncc(C(F)(F)F)c(N3CCCC(C)(O)C3)n2)c(F)c1 (stereo not drawn) [I-1063],A (A (>75% o)),< 100
CC1(O)CCCN(c2nc(Nc3ccc(S(=O)(=O)NC4CCC5(CC4)CN(CC4CCN(c6ccc(C7CCC(=O)NC7=O)c(F)c6)CC4)C5)cc3F)ncc2C(F)(F)F)C1 (stereo not drawn) [I-1064],A (A (>75% o)),< 100
